Where “and” joins values, the source holds several entries; their conditions need not be identical. Identical values can stand only once.
Experiments:
GPR139 [1] = biological target: T1, GPR139 (Homo sapiens, UniProt Q6DWJ6); assay: Ca2+ mobilization assay, agonist mode, stable GPR139-CHOk1 cell line; type: cell-based
T1 sequence (Q6DWJ6 1-353): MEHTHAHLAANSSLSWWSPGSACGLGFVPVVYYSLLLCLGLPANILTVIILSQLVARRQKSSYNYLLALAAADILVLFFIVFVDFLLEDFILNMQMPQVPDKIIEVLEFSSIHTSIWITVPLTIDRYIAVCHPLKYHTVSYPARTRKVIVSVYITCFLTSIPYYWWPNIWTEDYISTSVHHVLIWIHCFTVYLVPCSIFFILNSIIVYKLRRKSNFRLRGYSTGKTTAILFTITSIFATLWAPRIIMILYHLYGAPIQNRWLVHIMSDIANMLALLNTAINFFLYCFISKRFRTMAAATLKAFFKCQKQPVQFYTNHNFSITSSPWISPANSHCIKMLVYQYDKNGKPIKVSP
Experimental: Primary screening and pharmacological characterization of compounds were performed using a CHO-K1 cell line that stably expresses human GPR139 (GPR139-CHOk1). The GPR139-CHOk1 cell line was kindly provided by H. Lundbeck A/S, Denmark[24]. GPR139-CHOk1 cells were grown in Ham’s F-12 Kaighn’s Modification Medium (ThermoFisher #21127030) supplemented with 10% dialyzed fetal bovine serum (US origin, ThermoFisher #26400044), 100 units/mL Penicillin-Streptomycin (ThermoFisher #15140122), and 1 mg/mL Geneticin (ThermoFisher #11811031). […] M1R-CHOk1 cells were purchased from The Missouri S&T cDNA Resource Center (#CEM100TN00). M1R-CHOk1 cells were grown in Ham’s F12 Medium (ThermoFisher #21765029) supplemented with 10% fetal bovine serum (Brazilian origin, ThermoFisher #10270106), 100 units/mL Penicillin-Streptomycin, and 0.25 mg/mL Geneticin. HEK293A cells transiently transfected with GPR139 were used for additional pharmacological assessment of signaling pathways activated by GPR139. HEK239A cells were generously provided by Dr. Asuka Inoue, Tohoku University, Japan. HEK293A cells were grown in Dulbecco’s Modified Eagle Medium (ThermoFisher #31966047) supplemented with 10% dialyzed fetal bovine serum and 100 units/mL Penicillin-Streptomycin. Cell lines were maintained at 37 °C in humidified incubator equilibrated with 5% CO2.
(§1) 30,000 GPR139- or M1R-CHOk1 cells/well were seeded in black clear bottom tissue culture treated 96-well plates (Greiner #655090) and grown for 20–24 h. Cells were washed with HEPES buffer (Hank’s Balanced Salt Solution (HBBS) supplemented with 20 mM HEPES, 1 mM MgCl2, and 1 mM CaCl2; pH 7.4). Cells were loaded with 50 µL of 2 µM Fluo-4 AM dye (ThermoFisher #F14202) in HEPES buffer supplemented with 2.5 mM probenecid and 0.01% Pluronic F-68 (ThermoFisher #24040032) for 1 h at 37 °C. Cells were washed with HEPES buffer. 50 µL HEPES buffer supplemented with 2.5 mM probenecid was added, and the cells were incubated for 10 min at 37 °C before measurement. 50 µL test compounds diluted in HEPES buffer from DMSO stocks (final DMSO concentration of maximally 0.3%) were added automatically after baseline measurements. The intracellular calcium mobilization was measured on a FlexStation 3 Multimode Microplate Reader (Molecular Devices) at 37 °C with filters for excitation of 485 nm and emission of 525 nm.
(§2) Our primary compound screening protocol consisted of two subsequent steps that allowed to screen for agonists and antagonists simultaneously. In the first step, the screening compounds were applied at 10 µM to test for agonist activity (agonist mode). Following 20 min incubation with the compounds added in the first step, in the second step, an EC80 concentration (800 nM) of the reference agonist Lundbeck Cmp 1a was applied to test for antagonist activity (antagonist mode).
Pharmacological data and statistical analyses were performed in GraphPad Prism v9–10 (Graphpad Software Inc., San Diego, CA), which are also specifically described in the figure and table legends. The functional assay responses were normalized to buffer (0%) and Lundbeck Cmp 1a or JNJ-63533054 (100%), for Ca^2+ and IP1 experiments in the GPR139-CHOk1 stable cell line or Ca^2+, G protein activation, and arrestin-3 recruitment experiments in the HEK293A cells transiently transfected with GPR139, respectively. Data are from at least three independent experiments, unless stated otherwise. Concentration-response curves were fitted applying non-linear regression using the log (agonist) versus response model with variable slope. ANOVA was applied for comparing results and determining statistical significance.

GPR139 [2] = biological target: T1, GPR139; assay: Ca2+ mobilization assay, antagonist mode (EC80 800 nM Lundbeck Cmp 1a after 20 min preincubation), GPR139-CHOk1; type: cell-based
Experimental: as §1
as §2, with “(antagonist mode). In the agonist mode (first step) response is seen only with compounds having agonist activity (Cmp 1a), but not with non-receptor-binding compounds (Vehicle) or antagonists (NCRW0105-E06) (Supplementary Fig. 14). […] No antagonist compounds were identified in this study.” for “(antagonist mode).”

[3] = Agonist mode, individual replicates (Supplementary Figure 1)
[4] = individual replicates (Supplementary Figure 1)

| SMILES | Ca2+ signal (% of Cmp 1a) (GPR139 [1]; [3]) | Ca2+ signal (% of Cmp 1a) (GPR139 [2]; [4]) | other results |
| --- | --- | --- | --- |
| COc1ccc2cc(-c3nc(CC(=O)NC(C)c4ccccc4)no3)sc2c1 (stereo not shown) [Compound 1.36, COC1=CC2=C(C=C(C3=NC(CC(NC(C4=CC=CC=C4)C)=O)=NO3)S2)C=C1] |  |  | activation of GPR139 in analog screen (GPR139 [1]; 10 µM): All analogs, with the exception of compound 1.36, activated GPR139; Ca2+ signal (% of Cmp 1a) (GPR139 [1]; Agonist mode, individual replicates (Supplementary Figure 4)): 0 % of Cmp 1a and -15 % of Cmp 1a and -10 % of Cmp 1a; change in potency with larger substituents on the thiophene ring (GPR139 [1]; Ca2+ mobilization): three-fold reduction to a complete loss of activity; Ca2+ signal (% of Cmp 1a) (GPR139 [2]; individual replicates (Supplementary Figure 4)): 52 % of Cmp 1a and 69 % of Cmp 1a and 54 % of Cmp 1a |
| Cc1ccc(C(C)(C)NC(=O)Nc2cnc3nccn3c2)cn1 [Compound 56, CC=1C=CC(=CN1)C(C)(C)NC(=O)NC=2C=NC3=NC=CN3C2] | 5.3 % of Cmp 1a | 82.8713 % of Cmp 1a |  |
| Cc1ccc(Oc2ccc(NC(=O)C(C)n3cccn3)cn2)cc1 (stereo not shown) [Compound 59, CC(C(=O)NC=1C=CC(OC=2C=CC(C)=CC2)=NC1)N3C=CC=N3] | -2 % of Cmp 1a and -8 % of Cmp 1a and 2.12 % of Cmp 1a | 78.8114 % of Cmp 1a and 81.7621 % of Cmp 1a and 78.2182 % of Cmp 1a |  |
| O=C(CCn1nnc2ccccc2c1=O)Nc1ccc(F)c(F)c1F [Compound 33, FC=1C=CC(NC(=O)CCN2N=NC=3C=CC=CC3C2=O)=C(F)C1F] | -1.58 % of Cmp 1a and 1 % of Cmp 1a and 18 % of Cmp 1a | 80.4976 % of Cmp 1a and 74.4333 % of Cmp 1a and 82.6399 % of Cmp 1a |  |
| C[C@@H](NC(=O)CSc1nnc(C(F)(F)F)s1)c1ccccc1 [Compound 54, C[C@@H](NC(=O)CSC1=NN=C(S1)C(F)(F)F)C=2C=CC=CC2] | 0.563 % of Cmp 1a and 1.54 % of Cmp 1a and 23 % of Cmp 1a | 75.2455 % of Cmp 1a and 70.4918 % of Cmp 1a and 82.6113 % of Cmp 1a |  |
| Cc1nnsc1C(=O)N1CCCC1c1nc2cc(Cl)ccc2[nH]1 (stereo not shown) [Compound 38, CC=1N=NSC1C(=O)N2CCCC2C3=NC=4C=C(Cl)C=CC4N3] | 1.3 % of Cmp 1a and 1.18 % of Cmp 1a and -5.34 % of Cmp 1a | 85.3922 % of Cmp 1a and 96.4303 % of Cmp 1a and 86.2753 % of Cmp 1a |  |
| CC(C)(NC(=O)Nc1ccccc1)C(=O)Nc1cnc2ccccc2c1 [Compound 20, CC(C)(NC(=O)NC=1C=CC=CC1)C(=O)NC=2C=NC=3C=CC=CC3C2] | 2.84 % of Cmp 1a and -2.82 % of Cmp 1a and 13 % of Cmp 1a | 73.2682 % of Cmp 1a and 77.4411 % of Cmp 1a and 81.0233 % of Cmp 1a |  |
| O=C(CCn1nnn(-c2ccccc2)c1=O)Nc1ccc(F)cc1 [Compound 57, FC=1C=CC(NC(=O)CCN2N=NN(C=3C=CC=CC3)C2=O)=CC1] | 6 % of Cmp 1a and 0.524 % of Cmp 1a and 4 % of Cmp 1a | 80.3514 % of Cmp 1a and 84.9179 % of Cmp 1a and 81.9632 % of Cmp 1a |  |
| Cc1ccc(-c2nc(CC(=O)NCc3ccccc3)cs2)cc1 [Compound 68, CC=1C=CC(=CC1)C2=NC(CC(=O)NCC=3C=CC=CC3)=CS2] | -9 % of Cmp 1a and 15 % of Cmp 1a and 19 % of Cmp 1a | 60.0488 % of Cmp 1a and 59.0311 % of Cmp 1a and 102.015 % of Cmp 1a |  |
| CC(Sc1nnc(C(C)(C)C)[nH]1)C(=O)NC(C)c1ccccc1 (stereo not shown) [Compound 51, CC(NC(=O)C(C)SC1=NN=C(N1)C(C)(C)C)C=2C=CC=CC2] | -5 % of Cmp 1a and -3 % of Cmp 1a and 10 % of Cmp 1a | 68.4513 % of Cmp 1a and 72.762 % of Cmp 1a and 87.4722 % of Cmp 1a |  |
| CC(NC(=O)N1CCCCC1c1cnn(C)c1)c1nccs1 (stereo not shown) [Compound 34, CC(NC(=O)N1CCCCC1C=2C=NN(C)C2)C3=NC=CS3] | -1.66 % of Cmp 1a and 6.32 % of Cmp 1a and -6 % of Cmp 1a | 69.32 % of Cmp 1a and 71.8073 % of Cmp 1a and 90.0552 % of Cmp 1a |  |
| O=C(Cn1ccnc1)Nc1cccc(N2C(=O)c3ccccc3C2=O)c1 [Compound 24, O=C(CN1C=CN=C1)NC=2C=CC=C(C2)N3C(=O)C=4C=CC=CC4C3=O] | -4 % of Cmp 1a and 3 % of Cmp 1a and -9 % of Cmp 1a | 76.1398 % of Cmp 1a and 60.9703 % of Cmp 1a and 76.3719 % of Cmp 1a |  |
| CC(NC(=O)c1occc1COc1ccccc1)c1ccon1 (stereo not shown) [Compound 32, CC(NC(=O)C=1OC=CC1COC=2C=CC=CC2)C=3C=CON3] | -11 % of Cmp 1a and -0.416 % of Cmp 1a and 7 % of Cmp 1a | 55.4318 % of Cmp 1a and 73.597 % of Cmp 1a and 97.305 % of Cmp 1a |  |
| CC(=O)c1sc(NC(=O)Cc2cncs2)nc1-c1ccccc1 [Compound 36, CC(=O)C=1SC(NC(=O)CC2=CN=CS2)=NC1C=3C=CC=CC3] | 9 % of Cmp 1a and -3 % of Cmp 1a and 2.21 % of Cmp 1a | 88.0715 % of Cmp 1a and 92.8057 % of Cmp 1a and 66.8597 % of Cmp 1a |  |
| Cc1ccc(-n2cc(NC(=O)NCc3cccs3)cn2)c(C)c1 [Compound 37, CC=1C=CC(=C(C)C1)N2C=C(NC(=O)NCC3=CC=CS3)C=N2] | -6 % of Cmp 1a and 12 % of Cmp 1a and 7 % of Cmp 1a | 89.9792 % of Cmp 1a and 76.2749 % of Cmp 1a and 86.0947 % of Cmp 1a |  |
| CCN(C(=O)c1cc(Cc2ccccc2)n[nH]1)c1ccc(F)cc1 [Compound 62, CCN(C(=O)C1=CC(CC=2C=CC=CC2)=NN1)C=3C=CC(F)=CC3] | 3 % of Cmp 1a and 5.34 % of Cmp 1a and 3.55 % of Cmp 1a | 74.8769 % of Cmp 1a and 70.0616 % of Cmp 1a and 70.7351 % of Cmp 1a | Ca2+ signal (% of Cmp 1a) (GPR139 [1]; primary screen, 10 µM compound, agonist mode, three columns = independent experiments): 3 % of Cmp 1a and 5.34 % of Cmp 1a and 3.55 % of Cmp 1a |
| O=C(Nc1nc(C(F)(F)F)cs1)c1ccccc1-n1cnnn1 [Compound 58, FC(F)(F)C1=CSC(NC(=O)C=2C=CC=CC2N3C=NN=N3)=N1] | 8 % of Cmp 1a and -1.73 % of Cmp 1a and -5 % of Cmp 1a | 95.3999 % of Cmp 1a and 91.9653 % of Cmp 1a and 85.8363 % of Cmp 1a |  |
| CC(NC(=O)N(C)Cc1cccc(N(C)C)c1)c1csnn1 (stereo not shown) [Compound 50, CC(NC(=O)N(C)CC=1C=CC=C(C1)N(C)C)C2=CSN=N2] | -2.47 % of Cmp 1a and 0.0154 % of Cmp 1a and -4 % of Cmp 1a | 75.065 % of Cmp 1a and 68.1289 % of Cmp 1a and 85.7156 % of Cmp 1a |  |
| Cc1ccc(OCC(=O)Nc2ccc3c(c2)nc(C)n3C)cc1 [Compound 21, CC1=NC=2C=C(NC(=O)COC=3C=CC(C)=CC3)C=CC2N1C] | 1.09 % of Cmp 1a and -7 % of Cmp 1a and -8 % of Cmp 1a | 67.0268 % of Cmp 1a and 92.847 % of Cmp 1a and 77.1923 % of Cmp 1a |  |
| CN(Cc1ncc(Cl)n1C)c1nc2cc([N+](=O)[O-])ccc2[nH]1 [Compound 40, CN(CC1=NC=C(Cl)N1C)C2=NC=3C=C(C=CC3N2)[N+](=O)[O-]] | -0.934 % of Cmp 1a and 6 % of Cmp 1a and 11 % of Cmp 1a | 84.3072 % of Cmp 1a and 83.9821 % of Cmp 1a and 105.029 % of Cmp 1a |  |

Source: PMC12775434, “Ultra-large virtual screening unveils potent agonists of the neuromodulatory orphan receptor GPR139” (Nature Communications, 2025)
